{"source": "patent US8349801B2", "about": "“Peptide ligands for G-protein coupled receptors” (priority 2006, dated 2013)", "key": {"[1]": {"tested_on": "Zymosan-induced murine dorsal air pouch model", "type": "in vivo, mice", "conditions": "200 μg/mouse i.v., 4 h", "description": "In order to analyze the ability of P58 to exert in vivo effects via the FPRL1 receptor, an acute experimental model of inflammation, the Zymosan-induced murine dorsal air pouch model, was used.\nMale out-bred Swiss albino mice were purchased from Harlan, UK (T.O. strain) and maintained on a standard chow pellet diet with tap water ad libitum and a 12:00 h light/dark cycle. All animals were housed for 7 days prior to experimentation to allow body weight to reach ˜30 g on the day of the experiment.\nDrugs were stored at −20° C. and defrosted on the day of the experiment. Peptide P58 was provided lyophilized; it was taken back to room temperature and dissolved with sterile PBS before use to make an initial 1 mg/ml solution. […]\nFlow cytometry was performed using FACScan analyser (Becton Dickinson, Cowley, UK) with air-cooled 100 mW argon laser tuned to 488 nm connected to an Apple Macintosh G3 computer running Cell Quest II software. […] Cells positive for GR-1 were detected in the FL2 channel (wavelength of 548 nm). Data are expressed as percentage of positive cells (in relation to the specific mAb). […] Once determined, quadrants were rigorously maintained for all analyses.\nData are shown for single mice, and also shown as mean±S.E. of (n) mice per group. Statistical differences were determined by ANOVA, plus Student Newman Keuls test. […]"}, "FPRL1 [2]": {"target": "T1, FPRL1 (Homo sapiens, UniProt P25090)", "T1 sequence (P25090 1-351)": "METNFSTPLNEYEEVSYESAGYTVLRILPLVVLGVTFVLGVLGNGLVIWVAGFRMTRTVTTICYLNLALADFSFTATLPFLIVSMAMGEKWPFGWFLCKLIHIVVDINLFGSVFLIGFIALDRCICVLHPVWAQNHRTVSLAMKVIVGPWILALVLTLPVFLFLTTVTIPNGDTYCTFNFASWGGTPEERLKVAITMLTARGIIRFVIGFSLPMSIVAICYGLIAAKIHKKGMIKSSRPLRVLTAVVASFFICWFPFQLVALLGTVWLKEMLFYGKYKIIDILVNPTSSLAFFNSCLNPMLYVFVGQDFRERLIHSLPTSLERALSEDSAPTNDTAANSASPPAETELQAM", "assay": "Competitive radioligand binding assay ([125I] WKYMVm) to FPRL1 in CHO transfected cells", "parameters": "expressed in transfected cells; host or cells: CHO transfected cells", "conditions": "0.025 nM [125I] WKYMVm, 90 minutes at 25° C.; read-out: IC50, inhibition of W peptide binding", "description": "The specific binding of Peptide 58 (SEQ ID NO:1) to FPRL1 was analyzed by testing its ability to compete with 0.025 nM [^125I] WKYMVm (W peptide), a known agonist of FPRL1, for binding to FPRL1 in CHO transfected cells. CKβ8-1 (aa 46-137), another known ligand of FPRL1 was used as a positive control in this assay (Chiang et al 2006, Pharmacological Reviews 58, 463-487). Peptides were incubated with cells for 90 minutes at 25° C., in the presence of Incubation Buffer (50 mM HEPES, pH 7.4, 100 mM NaCl, 5 mM KCl, 5 mM MgCl2, 2 mM Ca Cl2, 0.5% BSA) and the amount of radioactive W peptide was measured."}, "FPRL1 [3]": {"target": "T1, FPRL1", "assay": "Calcium flux in CHO-K1 cells co-transfected with FPRL1 and Gα16", "type": "cell-based", "parameters": "expressed in transfected cells; host or cells: CHO-K1 (ATCC-CCL-61), transient co-transfection", "description": "The assay was carried out in CHO cells were transiently transfected with the GPCR of choice, by utilizing the promiscuous Gα16 to divert signaling to the Gq pathway, thus enabling readout of GPCR activation by testing for Calcium flux as described by Liu et al 2003 (Biomol Screen 8, 39-49).\nAll the peptides thus obtained were tested for their ability to change calcium flux in CHO—K1 cells (ATCC-CCL-61) transiently co-transfected with an expression vector containing the GPCR of choice and expression vector containing the Gα16 encoding cDNA. Expression constructs containing cDNA clones for MrgX1, MrgX2, Mas or FPRL1 were commercially obtained in one of the following expression vectors: pcDNA3.1, pCMV6, or MO2.\nTransient transfections were performed using CHO—K1 cells as host cells. Cells (12 million) were plated into T75 flasks on the day preceding transfection. Cells were transfected with the appropriate GPCR expression vector and with a vector expressing Gα16 using a lipid-based reagent, MTI, according to the manufacturer's recommendation. Cells were transfected for 5 hours, then re-plated into 96-well dishes (60,000 cells per well) and grown overnight.\nOn the day of the experiment, cells were loaded with Fluo4-NW (Invitrogen) according to the manufacturer's recommendation. Plates were loaded into a FlexStation™ (Molecular Devices) plate reader and fluorescence was monitored. Seventeen seconds following initiation of reading, cells were stimulated with the indicated agonist/compound at final concentration of 1 μM. Each 96 well plate contained cells transfected with one GPCR expression vector and each of the examined peptides was tested in triplicate.\nWe defined a hit as a peptide which elicited a clear and distinct increase in intracellular calcium that is clearly visible and statistically significant upon examination of the calcium trace for at least two repeats. The criterion for statistical significance was a p-value lower than 0.001 in a t-test comparing the levels of calcium before and after peptide addition.\nBased on dose response experiments, EC50 best fit values were calculated by non-linear regression of sigmoidal dose-response curves, using Prism version 4 (GraphPad Software Inc., San Diego, Calif.). The formulae for the sigmoidal dose-response curves was defined as Y=Bottom+(Top−Bottom)/(1+10^ (LogEC50−X)*HillSlope))\nThe ability of Peptides to change calcium flux was examined in CHO—K1 cells co-transfected with FPRL1 and Gal 6."}}, "note": "No end group written: not given here.", "data": [{"substance": "Ac2-26: a peptide derived from the N-terminus of AnnexinI; known FPRL1 agonist possessing anti-inflammatory activity; positive control (AMVSEFLKQAWFIENEEQEYVQTVK)", "values": [{"measurement": "inhibition of leukocyte accumulation triggered by zymosan A", "setting": "[1]", "result": "inhibited significantly"}, {"measurement": "inhibition of neutrophil (GR-1+) accumulation triggered by zymosan A", "setting": "[1]; FACS", "result": 52, "unit": "%"}]}, {"substance": "TIPMFVPESTSKLQKFTSWFM-NH2 [Peptide P58]", "values": [{"measurement": "IC50", "setting": "FPRL1 [2]", "result": 189, "unit": "nM"}, {"measurement": "calcium flux relative to the negative control", "setting": "FPRL1 [3]; 1 μM, three wells, about 20 to 90 seconds", "result": "increased calcium flux"}, {"measurement": "calcium flux, P58 and derivatives", "setting": "FPRL1 [3]; dose response", "result": "elicited calcium flux"}]}]}
